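Briefly, cells in 96-well plates were exposed to five compound concentrations for 48 h, and endpoints were estimated by linear interpolation. GI50 is the concentration that inhibits growth by half. TGI: concentration producing complete growth inhibition.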
Tests used:
Assay in all cases: growth of human tumour cells (NCI), 48 h
LOX IMVI melanoma = test system: LOX IMVI melanoma
HCC-2998 colon = test system: HCC-2998 colon
IGROV1 ovarian = test system: IGROV1 ovarian
DU-145 prostate = test system: DU-145 prostate
SF-295 CNS = test system: SF-295 CNS
MDA-MB-435 = test system: MDA-MB-435
BT-549 breast = test system: BT-549 breast
OVCAR-4 ovarian = test system: OVCAR-4 ovarian
UO-31 renal = test system: UO-31 renal
RXF 393 renal = test system: RXF 393 renal
NCI-H226 lung = test system: NCI-H226 lung
NCI/ADR-RES ovarian = test system: NCI/ADR-RES ovarian
ACHN renal = test system: ACHN renal
SK-MEL-5 melanoma = test system: SK-MEL-5 melanoma
HOP-62 NSCLC = test system: HOP-62 NSCLC
PC-3 prostate = test system: PC-3 prostate
HCT-15 colon = test system: HCT-15 colon
OVCAR-3 ovarian = test system: OVCAR-3 ovarian
KM12 colon = test system: KM12 colon
SK-OV-3 ovarian = test system: SK-OV-3 ovarian
HOP-92 NSCLC = test system: HOP-92 NSCLC
UACC-257 melanoma = test system: UACC-257 melanoma
U251 CNS = test system: U251 CNS
M14 melanoma = test system: M14 melanoma
SK-MEL-28 melanoma = test system: SK-MEL-28 melanoma
MCF7 breast = test system: MCF7 breast
SF-539 CNS = test system: SF-539 CNS
UACC-62 melanoma = test system: UACC-62 melanoma
NCI-H460 lung = test system: NCI-H460 lung
K-562 leukemia = test system: K-562 leukemia
HT29 colon = test system: HT29 colon
HS 578T breast = test system: HS 578T breast
TK-10 renal = test system: TK-10 renal
SNB-75 CNS = test system: SNB-75 CNS
COLO 205 colon = test system: COLO 205 colon
NCI-H23 lung = test system: NCI-H23 lung
MALME-3M melanoma = test system: MALME-3M melanoma
HCT-116 colon = test system: HCT-116 colon
CAKI-1 renal = test system: CAKI-1 renal
SF-268 CNS = test system: SF-268 CNS
OVCAR-8 ovarian = test system: OVCAR-8 ovarian
786-0 renal = test system: 786-0 renal
NCI-H522 lung = test system: NCI-H522 lung
SNB-19 CNS = test system: SNB-19 CNS
EKVX NSCLC = test system: EKVX NSCLC
OVCAR-5 ovarian = test system: OVCAR-5 ovarian
T-47D breast = test system: T-47D breast
SW-620 colon = test system: SW-620 colon
A549 NSCLC = test system: A549 NSCLC
SK-MEL-2 melanoma = test system: SK-MEL-2 melanoma
MDA-MB-231 breast = test system: MDA-MB-231 breast

`CC(C)C[C@H](NC(=O)[C@@H](O)[C@H](N)Cc1ccc([N+](=O)[O-])cc1)C(=O)O` was tested, and the GI50 (LOX IMVI melanoma) was > 25 µM, the TGI (LOX IMVI melanoma) was > 25 µM and the GI50 (HCC-2998 colon) was > 25 µM. For the same compound, the TGI (HCC-2998 colon) was > 25 µM, the GI50 (IGROV1 ovarian) was > 25 µM and the TGI (IGROV1 ovarian) was > 25 µM. The GI50 (DU-145 prostate) was > 25 µM, the TGI (DU-145 prostate) was > 25 µM and the GI50 (SF-295 CNS) was > 25 µM. For the same compound, the TGI (SF-295 CNS) was > 25 µM, the GI50 (MDA-MB-435) was > 25 µM and the TGI (MDA-MB-435) was > 25 µM. For the same compound, the GI50 (BT-549 breast) was > 25 µM, the TGI (BT-549 breast) was > 25 µM and the GI50 (OVCAR-4 ovarian) was > 25 µM. The TGI (OVCAR-4 ovarian) was > 25 µM, the GI50 (UO-31 renal) was > 25 µM and the TGI (UO-31 renal) was > 25 µM. For the same compound, the GI50 (RXF 393 renal) was 19.2 µM, the TGI (RXF 393 renal) was > 25 µM and the GI50 (NCI-H226 lung) was > 25 µM. The TGI (NCI-H226 lung) was > 25 µM, the GI50 (NCI/ADR-RES ovarian) was > 25 µM and the TGI (NCI/ADR-RES ovarian) was > 25 µM. For the same compound, the GI50 (ACHN renal) was > 25 µM, the TGI (ACHN renal) was > 25 µM and the GI50 (SK-MEL-5 melanoma) was > 25 µM. The TGI (SK-MEL-5 melanoma) was > 25 µM, the GI50 (HOP-62 NSCLC) was > 25 µM and the TGI (HOP-62 NSCLC) was > 25 µM. The GI50 (PC-3 prostate) was > 25 µM, the TGI (PC-3 prostate) was > 25 µM and the GI50 (HCT-15 colon) was > 25 µM. For the same compound, the TGI (HCT-15 colon) was > 25 µM, the GI50 (OVCAR-3 ovarian) was 0.0025 µM and the TGI (OVCAR-3 ovarian) was > 25 µM. The GI50 (KM12 colon) was > 25 µM, the TGI (KM12 colon) was > 25 µM and the GI50 (SK-OV-3 ovarian) was > 25 µM. For the same compound, the TGI (SK-OV-3 ovarian) was > 25 µM, the GI50 (HOP-92 NSCLC) was > 25 µM and the TGI (HOP-92 NSCLC) was > 25 µM. For the same compound, the GI50 (UACC-257 melanoma) was > 25 µM, the TGI (UACC-257 melanoma) was > 25 µM and the GI50 (U251 CNS) was > 25 µM. The TGI (U251 CNS) was > 25 µM, the GI50 (M14 melanoma) was > 25 µM and the TGI (M14 melanoma) was > 25 µM. The GI50 (SK-MEL-28 melanoma) was > 25 µM, the TGI (SK-MEL-28 melanoma) was > 25 µM and the GI50 (MCF7 breast) was > 25 µM. The TGI (MCF7 breast) was > 25 µM, the GI50 (SF-539 CNS) was > 25 µM and the TGI (SF-539 CNS) was > 25 µM. For the same compound, the GI50 (UACC-62 melanoma) was > 25 µM, the TGI (UACC-62 melanoma) was > 25 µM and the GI50 (NCI-H460 lung) was > 25 µM. The TGI (NCI-H460 lung) was > 25 µM, the GI50 (K-562 leukemia) was > 25 µM and the TGI (K-562 leukemia) was > 25 µM. The GI50 (HT29 colon) was > 25 µM, the TGI (HT29 colon) was > 25 µM and the GI50 (HS 578T breast) was > 25 µM. The TGI (HS 578T breast) was > 25 µM, the GI50 (TK-10 renal) was > 25 µM and the TGI (TK-10 renal) was > 25 µM. For the same compound, the GI50 (SNB-75 CNS) was > 25 µM, the TGI (SNB-75 CNS) was > 25 µM and the GI50 (COLO 205 colon) was > 25 µM. The TGI (COLO 205 colon) was > 25 µM, the GI50 (NCI-H23 lung) was > 25 µM and the TGI (NCI-H23 lung) was > 25 µM. The GI50 (MALME-3M melanoma) was > 25 µM, the TGI (MALME-3M melanoma) was > 25 µM and the GI50 (HCT-116 colon) was > 25 µM. For the same compound, the TGI (HCT-116 colon) was > 25 µM, the GI50 (CAKI-1 renal) was > 25 µM and the TGI (CAKI-1 renal) was > 25 µM. The GI50 (SF-268 CNS) was > 25 µM, the TGI (SF-268 CNS) was > 25 µM and the GI50 (OVCAR-8 ovarian) was > 25 µM. The TGI (OVCAR-8 ovarian) was > 25 µM, the GI50 (786-0 renal) was > 25 µM and the TGI (786-0 renal) was > 25 µM. For the same compound, the GI50 (NCI-H522 lung) was > 25 µM, the TGI (NCI-H522 lung) was > 25 µM and the GI50 (SNB-19 CNS) was > 25 µM. For the same compound, the TGI (SNB-19 CNS) was > 25 µM, the GI50 (EKVX NSCLC) was > 25 µM and the TGI (EKVX NSCLC) was > 25 µM. The GI50 (OVCAR-5 ovarian) was > 25 µM, the TGI (OVCAR-5 ovarian) was > 25 µM and the GI50 (T-47D breast) was > 25 µM. The TGI (T-47D breast) was > 25 µM, the GI50 (SW-620 colon) was > 25 µM and the TGI (SW-620 colon) was > 25 µM. The GI50 (A549 NSCLC) was > 25 µM, the TGI (A549 NSCLC) was > 25 µM and the GI50 (SK-MEL-2 melanoma) was > 25 µM. The TGI (SK-MEL-2 melanoma) was > 25 µM, the GI50 (MDA-MB-231 breast) was > 25 µM and the TGI (MDA-MB-231 breast) was > 25 µM.

— PubChem BioAssay (NCI)
